From patent US9655967B2, “Inhibition of focal adhesion kinase for control of scar tissue formation” (The Board of Trustees of the Leland Stanford Junior …, priority 2011, dated 2017)

Columns and labels:
human fibroblasts [1] = assay: Focal adhesion formation and spreading in human fibroblasts; format: cell-based; details: PF573228 treatment
Description: To substantiate the importance of these findings in human tissues, we examined FAK pathways in vitro in human fibroblasts. Following the application of strain, FAK was activated within five minutes and sustained during the static strain period (FIG. 3a-b). ERK was phosphorylated after ten minutes and its activation was critically dependent on FAK, thus recapitulating the FAK-ERK mechanotransduction axis observed in vivo. Small molecule inhibition of FAK (PF573228) was used to investigate mechanically-regulated fibroblast function during wound repair. […] Additionally, cell motility (FIG. 3c) and contraction/α-SMA expression (FIG. 3d-e) were all decreased with FAK inhibition.
Fibroblast harvest. We isolated primary dermal mouse fibroblasts after overnight incubation in trypsin (Gibco/Invitrogen, Carlsbad, Calif.) followed by 1 mg mL^−1 Liberase TL (Roche, Indianapolis, Ind.). We obtained human fibroblasts from fresh tissue specimens following IRB-approved protocols at Oregon Health and Sciences University. We incubated specimens overnight in 5 mg mL^−1 dispase (Roche) followed by 0.5 mg mL^−1 collagenase type I (Roche) and 0.2 mg mL^−1 trypsin. […]
Microscopy and immunohistochemistry. […] We processed images for publication using Adobe Photoshop CS3 (Adobe Systems Incorporated, San Jose, Calif.) and two blinded investigators performed image quantification using ImageJ (NIH, Bethesda, Md.).

human fibroblasts [2] = assay: Scratch migration assay (fibroblast motility); format: cell-based; details: FIG. 3c
Protocol: (§1) Fibroblast harvest. We isolated primary dermal mouse fibroblasts after overnight incubation in trypsin (Gibco/Invitrogen, Carlsbad, Calif.) followed by 1 mg mL^−1 Liberase TL (Roche, Indianapolis, Ind.). We obtained human fibroblasts from fresh tissue specimens following IRB-approved protocols at Oregon Health and Sciences University. We incubated specimens overnight in 5 mg mL^−1 dispase (Roche) followed by 0.5 mg mL^−1 collagenase type I (Roche) and 0.2 mg mL^−1 trypsin. We used human cells from passages four to eight.
In vitro wound healing. We assessed fibroblast motility using a scratch migration assay, Aarabi, et al. FASEB J 21, 3250-3261 (2007).

human fibroblasts [3] = assay: Fibroblast-populated 3D-collagen lattices (contraction, α-SMA expression); format: cell-based; details: FIG. 3d-e
Protocol: as §1
Fibroblast-populated collagen lattices. We performed fibroblast contraction studies as previously published, Ehrlich, Methods Mol Med 78, 277-291 (2003).
Microscopy and immunohistochemistry. We incubated paraformaldehyde-fixed cells with primary antibody (pFAK-Y397 or FAK 1:200, BD Biosciences, San Jose, Calif.) followed by AlexaFluor488-conjugated secondary antibody (Molecular Probes/Invitrogen). We performed cytoskeletal staining with phalloidin-AF488 or Cy3-conjugated antibody against α-SMA (Sigma-Aldrich). We performed H&E, picrosirius red and trichrome staining (Sigma-Aldrich) on paraffin-embedded sections. […] We processed images for publication using Adobe Photoshop CS3 (Adobe Systems Incorporated, San Jose, Calif.) and two blinded investigators performed image quantification using ImageJ (NIH, Bethesda, Md.).

[4] = tested on: cutaneous wounds in the HTS model; assay: Murine HTS model with daily intradermal injections; format: in vivo
Protocol: Murine HTS model. We used a murine HTS model as previously published by our group, Aarabi, et al., supra.
Microscopy and immunohistochemistry. We incubated paraformaldehyde-fixed cells with primary antibody (pFAK-Y397 or FAK 1:200, BD Biosciences, San Jose, Calif.) followed by AlexaFluor488-conjugated secondary antibody (Molecular Probes/Invitrogen). We performed cytoskeletal staining with phalloidin-AF488 or Cy3-conjugated antibody against α-SMA (Sigma-Aldrich). We performed H&E, picrosirius red and trichrome staining (Sigma-Aldrich) on paraffin-embedded sections. We used primary antibodies against FAK, MCP-1, F4/80, Ki67, and α-SMA. Immunostaining was developed with VIP, NovaRed or diaminobenzidine (Vector Laboratories, Burlingame, Calif.), or secondary fluorescent antibodies AF488 or AF594. We performed apoptotic staining using the In Situ Cell Death Detection Kit (Roche). We purchased all antibodies from Abcam Inc. (Cambridge, Mass.) unless otherwise noted. We processed images for publication using Adobe Photoshop CS3 (Adobe Systems Incorporated, San Jose, Calif.) and two blinded investigators performed image quantification using ImageJ (NIH, Bethesda, Md.).
Gene expression. We performed qPCR as previously published. We used Taqman Gene Expression Assays (Applied Biosystems, Foster City, Calif.) for in vitro qPCR.
Immunoblotting. We performed immunoblotting as previously described. We used the following antibodies: FAK (BD Biosciences), p-FAK Y397, p-FAK S732, p-ERK T202/Y204 and ERK, p-Akt S473 and Akt (Cell Signaling Technology, Inc., Danvers, Mass.), p-p38 Y182 and p38, p-JNK T183/Y185 and JNK, MCP-1 and β-actin. We obtained all antibodies from Abcam Inc. unless otherwise noted.
Intradermal injections. We administered intradermal injections (300 μL) of DMSO, 15 μM PF573228, or 150 μM PF573228 to unwounded murine skin or unloaded incisions. For HTS model experiments, we injected 15 μM PF573228 or recombinant mouse Mcp-1 (1 μg mL^−1, R&D Systems Inc.) daily between days 4 and 14 post-injury.

Row | Molecule | formation of focal adhesions (human fibroblasts [1]) | spreading in human fibroblasts (human fibroblasts [1]) | cell motility (human fibroblasts [2]) | contraction/α-SMA expression (human fibroblasts [3]) | scar formation in vivo ([4]; 15 μM PF573228 intradermal daily, days 4 to 14 post-injury, FIG. 4a) | MCP-1-associated pathways ([4]; HTS model scars) | mechanical activation of ERK ([4]; HTS model scars) | scar matrix density ([4]; post-injury day ten scars) | attenuation of epithelial proliferation ([4]; post-injury day ten scars, p<0.001) [%] | attenuation of epithelial thickness ([4]; post-injury day ten scars, p=0.004) [%] | attenuation of dermal proliferation ([4]; post-injury day ten scars, p=0.01) [%] | fibrotic phenotype in FAK-deficient wounds ([4]; FAK KO mice, intradermal Mcp-1 1 μg mL^−1 daily, FIG. 2c-f)
1 | CS(=O)(=O)c1cccc(CNc2nc(Nc3ccc4c(c3)CCC(=O)N4)ncc2C(F)(F)F)c1 [PF573228] | effectively inhibited | impaired | decreased | decreased | significantly reduced | blocked | significantly decreased | attenuated | 57 | 35 | 28 | 
2 | Mcp-1: recombinant mouse Mcp-1 (monocyte chemoattractant protein-1/CCL2), R&D Systems Inc. |  |  |  |  |  |  |  |  |  |  |  | restored the fibrotic phenotype
